In ChEMBL document CHEMBL3808387, “Discovery of IWP-051, a Novel Orally Bioavailable sGC Stimulator with Once-Daily Dosing Potential in Humans” (ACS Med Chem Lett, 2016):
pEC50: −log10 of the molar value.

System: not listed separately
Test: Intrinsic clearance in Sprague-Dawley rat liver microsomes assessed per mg of protein at 2 uM after 10 to 30 mins by LC/MS/MS analysis in presence of NADPH
Type: ADME
Settings: read-out: CLH

Row | SMILES | microsomal CLint at 2 µM [µL/min/mg]
1 | O=c1[nH]c(-c2cc(-c3ccon3)n(Cc3ccc(F)cc3F)n2)ncc1F | 4
2 | O=S(=O)(c1ccc(Cl)cc1)c1cnc(-c2cc(-c3ccon3)n(Cc3ccccc3F)n2)nc1O | 15
3 | CN(C)S(=O)(=O)c1cnc(-c2cc(-c3ccon3)n(Cc3ccccc3F)n2)nc1O | 24

The next lines start with the values.

Row | microsomal CLint at 2 µM [µL/min/mg] | SMILES
4 | 5 | Oc1nc(-c2cc(-c3ccon3)n(Cc3ccccc3F)n2)ncc1Cl
5 | 3 | Oc1nc(-c2cc(-c3ccon3)n(Cc3cccc(F)c3F)n2)ncc1F
6 | 4 | O=c1[nH]c(-c2cc(-c3ccon3)n(CCC(F)(F)C(F)(F)F)n2)ncc1F
7 | 32 | Oc1nc(-c2cc(-c3ccon3)n(CCC(F)(F)F)n2)ncc1F
8 | 7 | Oc1nc(-c2cc(-c3ccon3)n(Cc3ncccc3F)n2)ncc1F

Target: Soluble guanylate cyclase (Homo sapiens) (UniProt Q02153+O75343+P33402+Q02108)
Test: Activation of SGC in HEK293 cells assessed as cGMP production at 30 uM after 20 mins by LC-MS/MS analysis in presence of NO-donor DETA-NONOate
Type: cell-based
Settings: not given

Row | Emax [%] | SMILES
9 | 87 | CN(C)S(=O)(=O)c1cnc(-c2cc(-c3ccon3)n(Cc3ccccc3F)n2)nc1O
10 | 44 | Oc1nc(-c2cc(-c3ccon3)n(Cc3ncccc3F)n2)ncc1F

Target: Soluble guanylate cyclase (Homo sapiens, UniProt O75343+P33402+Q02108+Q02153)
Test: Activation of SGC in HEK293 cells assessed as cGMP production after 20 mins by LC-MS/MS analysis in presence of NO-donor DETA-NONOate
Type: cell-based
Settings: not given

Soluble guanylate cyclase, sequence (Q02153 whole entry): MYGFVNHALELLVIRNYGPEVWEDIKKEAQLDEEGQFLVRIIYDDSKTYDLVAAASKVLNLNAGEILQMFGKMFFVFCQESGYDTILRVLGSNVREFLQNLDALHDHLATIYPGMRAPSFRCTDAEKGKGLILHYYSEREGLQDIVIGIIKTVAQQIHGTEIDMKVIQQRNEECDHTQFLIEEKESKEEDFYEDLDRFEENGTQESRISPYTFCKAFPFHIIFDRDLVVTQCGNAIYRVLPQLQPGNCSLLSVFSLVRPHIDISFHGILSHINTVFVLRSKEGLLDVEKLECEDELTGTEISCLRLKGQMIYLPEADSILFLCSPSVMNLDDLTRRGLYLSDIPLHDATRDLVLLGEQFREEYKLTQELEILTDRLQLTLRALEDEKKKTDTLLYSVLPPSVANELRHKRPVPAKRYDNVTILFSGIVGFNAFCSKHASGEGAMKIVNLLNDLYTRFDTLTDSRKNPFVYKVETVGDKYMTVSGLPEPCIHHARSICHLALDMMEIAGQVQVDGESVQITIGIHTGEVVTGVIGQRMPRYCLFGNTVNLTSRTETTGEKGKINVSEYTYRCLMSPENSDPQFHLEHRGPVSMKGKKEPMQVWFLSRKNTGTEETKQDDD
Soluble guanylate cyclase, sequence (O75343 whole entry): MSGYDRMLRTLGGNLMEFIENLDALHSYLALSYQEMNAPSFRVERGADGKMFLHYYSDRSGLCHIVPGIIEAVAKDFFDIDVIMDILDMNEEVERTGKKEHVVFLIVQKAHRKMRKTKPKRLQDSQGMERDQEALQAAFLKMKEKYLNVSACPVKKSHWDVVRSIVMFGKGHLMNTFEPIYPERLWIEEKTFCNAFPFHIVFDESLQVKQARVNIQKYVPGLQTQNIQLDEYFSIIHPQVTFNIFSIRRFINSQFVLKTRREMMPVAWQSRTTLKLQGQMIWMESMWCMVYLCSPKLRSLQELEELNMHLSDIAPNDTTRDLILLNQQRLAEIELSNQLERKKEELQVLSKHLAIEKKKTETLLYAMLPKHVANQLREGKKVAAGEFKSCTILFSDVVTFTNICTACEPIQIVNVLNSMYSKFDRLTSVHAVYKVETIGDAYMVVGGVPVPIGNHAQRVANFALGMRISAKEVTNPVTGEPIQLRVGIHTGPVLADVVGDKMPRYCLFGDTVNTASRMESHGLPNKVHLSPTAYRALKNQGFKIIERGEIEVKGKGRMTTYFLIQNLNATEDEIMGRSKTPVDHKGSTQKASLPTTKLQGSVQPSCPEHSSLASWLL
Soluble guanylate cyclase, sequence (P33402 whole entry): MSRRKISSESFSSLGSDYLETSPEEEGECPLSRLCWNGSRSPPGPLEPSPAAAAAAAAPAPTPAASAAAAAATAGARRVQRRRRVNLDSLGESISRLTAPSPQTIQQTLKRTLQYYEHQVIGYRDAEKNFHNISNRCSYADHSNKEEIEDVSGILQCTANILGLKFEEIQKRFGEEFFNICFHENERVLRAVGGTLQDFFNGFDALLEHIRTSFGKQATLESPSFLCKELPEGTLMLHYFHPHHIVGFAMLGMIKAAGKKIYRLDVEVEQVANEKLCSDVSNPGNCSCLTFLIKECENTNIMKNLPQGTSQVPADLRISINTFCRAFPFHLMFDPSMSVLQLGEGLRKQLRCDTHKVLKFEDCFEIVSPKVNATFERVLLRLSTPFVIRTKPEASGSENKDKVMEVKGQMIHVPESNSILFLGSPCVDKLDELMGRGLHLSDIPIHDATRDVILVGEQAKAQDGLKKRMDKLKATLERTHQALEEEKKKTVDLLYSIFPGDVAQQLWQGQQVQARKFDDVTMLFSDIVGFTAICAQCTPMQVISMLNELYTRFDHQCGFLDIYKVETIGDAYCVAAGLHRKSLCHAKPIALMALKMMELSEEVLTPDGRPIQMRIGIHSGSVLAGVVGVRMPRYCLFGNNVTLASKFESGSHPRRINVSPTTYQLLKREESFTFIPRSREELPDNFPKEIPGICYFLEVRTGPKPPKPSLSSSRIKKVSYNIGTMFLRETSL
Soluble guanylate cyclase, sequence (Q02108 whole entry): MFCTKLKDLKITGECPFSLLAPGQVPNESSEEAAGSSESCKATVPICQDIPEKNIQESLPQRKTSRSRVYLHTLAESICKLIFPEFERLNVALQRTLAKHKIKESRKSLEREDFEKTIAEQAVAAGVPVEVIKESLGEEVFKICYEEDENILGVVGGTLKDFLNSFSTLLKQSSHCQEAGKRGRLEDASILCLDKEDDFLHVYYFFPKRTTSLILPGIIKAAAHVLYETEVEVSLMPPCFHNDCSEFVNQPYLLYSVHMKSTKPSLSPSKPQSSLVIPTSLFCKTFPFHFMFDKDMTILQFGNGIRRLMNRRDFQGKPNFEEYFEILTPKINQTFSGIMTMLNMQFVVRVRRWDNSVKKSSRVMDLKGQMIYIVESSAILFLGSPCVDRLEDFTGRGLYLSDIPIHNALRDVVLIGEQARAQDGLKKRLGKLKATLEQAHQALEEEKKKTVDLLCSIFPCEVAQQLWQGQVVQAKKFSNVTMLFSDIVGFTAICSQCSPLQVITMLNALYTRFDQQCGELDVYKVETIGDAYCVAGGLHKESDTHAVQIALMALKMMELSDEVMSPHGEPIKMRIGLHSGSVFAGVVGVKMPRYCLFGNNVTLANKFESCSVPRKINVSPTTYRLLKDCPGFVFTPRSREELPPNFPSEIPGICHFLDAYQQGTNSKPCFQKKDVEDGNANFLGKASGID

Row | SMILES | pEC50
11 | O=c1[nH]c(-c2cc(-c3ccon3)n(Cc3ccc(F)cc3F)n2)ncc1F | 6.28
12 | O=S(=O)(c1ccc(Cl)cc1)c1cnc(-c2cc(-c3ccon3)n(Cc3ccccc3F)n2)nc1O | 6.80

Results, then the compound that gave them:

Row | pEC50 | SMILES
13 | 6.23 | Oc1nc(-c2cc(-c3ccon3)n(Cc3ccccc3F)n2)ncc1Cl
14 | 6.43 | Oc1nc(-c2cc(-c3ccon3)n(Cc3cccc(F)c3F)n2)ncc1F
15 | 5.82 | O=c1[nH]c(-c2cc(-c3ccon3)n(CCC(F)(F)C(F)(F)F)n2)ncc1F

System: not listed separately
Test: Intrinsic clearance in human liver microsomes assessed per mg of protein at 2 uM after 10 to 30 mins by LC/MS/MS analysis in presence of NADPH
Type: ADME
Settings: read-out: CLH

Row | SMILES | microsomal CLint at 2 µM [µL/min/mg]
16 | O=c1[nH]c(-c2cc(-c3ccon3)n(Cc3ccc(F)cc3F)n2)ncc1F | 4
17 | O=S(=O)(c1ccc(Cl)cc1)c1cnc(-c2cc(-c3ccon3)n(Cc3ccccc3F)n2)nc1O | 6
18 | CN(C)S(=O)(=O)c1cnc(-c2cc(-c3ccon3)n(Cc3ccccc3F)n2)nc1O | 8

Next, values leading:

Row | microsomal CLint at 2 µM [µL/min/mg] | SMILES
19 | 7 | Oc1nc(-c2cc(-c3ccon3)n(Cc3ccccc3F)n2)ncc1Cl
20 | 7 | Oc1nc(-c2cc(-c3ccon3)n(Cc3cccc(F)c3F)n2)ncc1F
21 | 6 | O=c1[nH]c(-c2cc(-c3ccon3)n(CCC(F)(F)C(F)(F)F)n2)ncc1F
22 | 23 | Oc1nc(-c2cc(-c3ccon3)n(CCC(F)(F)F)n2)ncc1F
23 | 15 | Oc1nc(-c2cc(-c3ccon3)n(Cc3ncccc3F)n2)ncc1F
